The results in this text go back to patent publication US20010053333A1, “Antimicrobial flash-dry disinfectant aerosol” (priority 2000, published 2001).

A short description of the data set: Evaporation time for various aerosol sterilizer. It is filed as physicochemical. The text has this: Evaporation Time for Various Aerosol Sterilizer

For the compound `O` [H2O], the “Evaporation Time: state” value (1 minute) is “wet”; the “Evaporation Time: state” value (2 minutes) was “wet”; the “Evaporation Time: state” value (5 minutes) is “humid”; the “Evaporation Time: state” value (15 minutes) is given as “droplets”; the “Evaporation Time: state” value (30 minutes) is on record as “droplets”; the “Evaporation Time: state” value (40 minutes) was “droplets”. Besides, for the setting “45 minutes”, the “Evaporation Time: state” value is “dry”.
